This data set concerns mouse liver microsomes, LC/MS/MS parent remaining, 60 min. Description: mouse hepatic microsomal parent compound depletion – biochemical, LC/MS/MS, with and without NADPH, ADME assay, late-stage follow-up (AID 1940). Particulars: at 1 µM, stronger effect = lower value.

SMILES strings stand for the structures.

For `CC1Cc2cc(S(=O)(=O)N3CCN(c4ccc(Cl)cc4)CC3)ccc2N1C(=O)C1CC1` (configuration not stated), the percent remaining is 0.56%. Also, the percent remaining (measured here: no NADPH control) is 61.2%.

Source of the values: PubChem BioAssay AID1940 (Sanford-Burnham Center for Chemical Genomics, 2009).
